In ChEMBL document CHEMBL1140669, “Potent and selective CC-chemokine receptor-2 (CCR2) antagonists as a potential treatment for asthma” (Bioorg Med Chem Lett, 2007):

What was measured:
[1] = Aqueous solubility at pH 2; format: physicochemical
[2] = Metabolic stability in human liver microsomes after 1 hr; format: ADME, Microsome; conditions: read-out: Stability
[3] = […] bioavailability in sc dosed rat; format: ADME, organism-based; conditions: in vivo, subcutaneous
[4] = […] bioavailability in ip dosed rat; format: ADME, organism-based; conditions: in vivo, intraperitoneal
[5] = Aqueous solubility at pH 7; format: physicochemical

In the case of `C[N+](C)(Cc1ccc(NC(=O)c2ccc(Cl)c(Cl)c2)cc1)C1CCOCC1` [JNJ-17166864 CATION], the solubility [1] is reported as > 7000 µg/mL, the remaining at 1 h [2] is reported as 100% and the bioavailability [3] is reported as 100%. The bioavailability [4] was 74% and the solubility [5] was > 7000 µg/mL.
